Patent publication US20060069132A1, “Azolecarboxamide herbicides” (priority 2004, published 2006)

Columns and labels:
Assay in all cases: Test E pre-/postemergence herbicide test
common chickweed = type: in vivo, Stellaria media
Text: (§1) Seeds of plant species selected from bipinnate beggarticks (Bidens bipinnata L.), hairy beggarticks (Bidens radiata Thuill.), bermudagrass (Cynodon dactylon (L.) Pers.), Surinam grass (Urochloa decumbens (Staph) R. D. Webster, previously named Brachiaria decumbens Stapf), large crabgrass (Digitaria sanguinalis (L.) Scop.), green foxtail (Setaria viridis (L.) P. Beauv.), goosegrass (Eleusine indica (L.) Gaertn.), johnsongrass (Sorghum halepense (L.) Pers.), kochia (Kochia scoparia (L.) Schrad.), pitted morningglory (Ipomoea lacunosa L.), purple nutsedge (Cyperus rotundus L.), common ragweed (Ambrosia elatior L.), mustard (Brassica nigra (L.) W. D. J. Koch), guineagrass (Panicum maximum Jacq.), dallisgrass (Paspalum dilatatum Poir.), barnyardgrass (Echinochloa crus-galli (L). P. Beauv.), southern sandbur (Cenchrus echinatus L.), common sowthistle (Sonchus oleraceous L.), prickly sida (Sida spinosa L.), Italian ryegrass (Lolium multiflorum Lam.), common purslane (Portulaca oleracea L.), broadleaf signalgrass (Brachiaria platyphylla (Griseb.) Nash), common groundsel (Senecio vulgaris L.), common chickweed (Stellaria media (L.) Vill/Cyr.), tropical spiderwort (Commelina benghalensis L.), annual bluegrass (Poa annua L.), downy bromegrass (Bromus tectorum L.), itchgrass (Rottboellia cochinchinensis (L.) L.f.), quackgrass (Elytrigia repens (L.) Nevski), Canada horseweed (Erigeron Canadensis L.), field bindweed (Convolvulus arvensis L.), spotted spurge (Euphorbia maculata L.), common mallow (Malva sylvestris (=s silvestris) L.), and Russian thistle (Salsola kali L. ssp. Ruthenica (Iljin) Soo) were planted and treated preemergence with test chemicals formulated in a non-phytotoxic solvent mixture which included a surfactant.
(§2) At the same time, plants selected from these weed species were treated with postemergence applications of some of the test chemicals formulated in the same manner. Plants ranged in height from 2 to 18 cm (1- to 4-leaf stage) for postemergence treatments. Treated plants and controls were maintained in a greenhouse for 12 to 14 days, after which time all species were compared to controls and visually evaluated. Plant response ratings, summarized in Table E, are based on a scale of 0 to 100 where 0 is no effect and 100 is complete control. A dash (-) response means no test result.

mustard = type: in vivo, Brassica nigra
In short: (§3)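 Pre-/postemergence spray, solvent + surfactant vehicle; post timing 1- to 4-leaf stage (2–18 cm). Greenhouse 12–14 d. Visual score 0 (no effect) to 100 (complete control) relative to controls.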

annual bluegrass = type: in vivo, Poa annua
In short: as §3

goosegrass = type: in vivo, Eleusine indica
In short: as §3

common sowthistle = type: in vivo, Sonchus oleraceous
In short: as §3

itchgrass = type: in vivo, Rottboellia cochinchinensis
In short: as §3

common purslane = type: in vivo, Portulaca oleracea
Text: as §1, §2

southern sandbur = type: in vivo, Cenchrus echinatus
In short: as §3

tropical spiderwort = type: in vivo, Commelina benghalensis
In short: as §3

[1] = Postemergence, 500 g ai/ha, scale 0 to 100
[2] = Postemergence, 250 g ai/ha, scale 0 to 100
[3] = Preemergence, 62 g ai/ha, scale 0 to 100
[4] = Preemergence, 125 g ai/ha, scale 0 to 100
[5] = Preemergence, 250 g ai/ha, scale 0 (no effect) to 100 (complete control)
[6] = Preemergence, 500 g ai/ha, scale 0 (no effect) to 100 (complete control)
[7] = postemergence, 125 g ai/ha, scale 0 to 100
[8] = postemergence, 62 g ai/ha, scale 0 to 100

CCc1nn(C(C)(C)C)cc1C(=O)Nc1cc(C(=O)N(C)C)ccc1F [Compound 222, N-[5-[(dimethylamino)carbonyl]-2-fluorophenyl]-1-(1,1-dimethylethyl)-3-ethyl-1H-pyrazole-4-carboxamide]
Plant response rating, Chickweed (common chickweed; [1]): 100
Plant response rating, Chickweed (common chickweed; [2]): 100
Plant response rating, Chickweed (common chickweed; [3]): 80
Plant response rating, Chickweed (common chickweed; [4]): 100
Plant response rating, Chickweed (common chickweed; [5]): 100
Plant response rating, Chickweed (common chickweed; [6]): 100
Plant response rating, Chickweed (common chickweed; [7]): 100
Plant response rating, Chickweed (common chickweed; [8]): 80
Plant response rating, Black Mustard (mustard; [1]): 95
Plant response rating, Black Mustard (mustard; [2]): 95
Plant response rating, Black Mustard (mustard; [3]): 90
Plant response rating, Black Mustard (mustard; [4]): 100
Plant response rating, Black Mustard (mustard; [5]): 100
Plant response rating, Black Mustard (mustard; [6]): 100
Plant response rating, Black Mustard (mustard; [7]): 90
Plant response rating, Black Mustard (mustard; [8]): 90
Plant response rating, Bluegrass (annual bluegrass; [1]): 90
Plant response rating, Bluegrass (annual bluegrass; [2]): 90
Plant response rating, Bluegrass (annual bluegrass; [3]): 90
Plant response rating, Bluegrass (annual bluegrass; [4]): 100
Plant response rating, Bluegrass (annual bluegrass; [5]): 100
Plant response rating, Bluegrass (annual bluegrass; [6]): 100
Plant response rating, Bluegrass (annual bluegrass; [7]): 80
Plant response rating, Bluegrass (annual bluegrass; [8]): 60
Plant response rating, Goosegrass (goosegrass; [1]): 90
Plant response rating, Goosegrass (goosegrass; [2]): 90
Plant response rating, Goosegrass (goosegrass; [3]): 60
Plant response rating, Goosegrass (goosegrass; [4]): 75
Plant response rating, Goosegrass (goosegrass; [5]): 90
Plant response rating, Goosegrass (goosegrass; [6]): 95
Plant response rating, Goosegrass (goosegrass; [7]): 75
Plant response rating, Goosegrass (goosegrass; [8]): 60
Plant response rating, Sowthistle (common sowthistle; [1]): 100
Plant response rating, Sowthistle (common sowthistle; [2]): 100
Plant response rating, Sowthistle (common sowthistle; [3]): 75
Plant response rating, Sowthistle (common sowthistle; [4]): 90
Plant response rating, Sowthistle (common sowthistle; [5]): 90
Plant response rating, Sowthistle (common sowthistle; [6]): 95
Plant response rating, Sowthistle (common sowthistle; [7]): 60
Plant response rating, Sowthistle (common sowthistle; [8]): 20
Plant response rating, Itchgrass (itchgrass; [2]): 70
Plant response rating, Itchgrass (itchgrass; [3]): 75
Plant response rating, Itchgrass (itchgrass; [4]): 95
Plant response rating, Itchgrass (itchgrass; [5]): 95
Plant response rating, Itchgrass (itchgrass; [6]): 95
Plant response rating, Itchgrass (itchgrass; [7]): 60
Plant response rating, Itchgrass (itchgrass; [8]): 60
Plant response rating, Purslane (common purslane; [2]): 60
Plant response rating, Purslane (common purslane; [3]): 70
Plant response rating, Purslane (common purslane; [4]): 100
Plant response rating, Purslane (common purslane; [5]): 100
Plant response rating, Purslane (common purslane; [6]): 100
Plant response rating, Purslane (common purslane; [7]): 30
Plant response rating, Purslane (common purslane; [8]): 10
Plant response rating, Sandbur (southern sandbur; [1]): 80
Plant response rating, Sandbur (southern sandbur; [2]): 50
Plant response rating, Sandbur (southern sandbur; [3]): 0
Plant response rating, Sandbur (southern sandbur; [4]): 40
Plant response rating, Sandbur (southern sandbur; [5]): 70
Plant response rating, Sandbur (southern sandbur; [6]): 95
Plant response rating, Sandbur (southern sandbur; [7]): 10
Plant response rating, Sandbur (southern sandbur; [8]): 10
Plant response rating, Spiderwort (tropical spiderwort; [2]): 60
Plant response rating, Spiderwort (tropical spiderwort; [6]): 95
Plant response rating, Spiderwort (tropical spiderwort; [7]): 40

CCc1nn(C(C)C)nc1C(=O)Nc1cccc(C(=O)N(C)CC)c1 [Compound 386]
Plant response rating, Chickweed (common chickweed; [4]): 95
Plant response rating, Chickweed (common chickweed; [5]): 95
Plant response rating, Black Mustard (mustard; [5]): 70
Plant response rating, Bluegrass (annual bluegrass; [4]): 60
Plant response rating, Bluegrass (annual bluegrass; [5]): 95
Plant response rating, Goosegrass (goosegrass; [4]): 80
Plant response rating, Goosegrass (goosegrass; [5]): 95
Plant response rating, Sowthistle (common sowthistle; [4]): 60
Plant response rating, Sowthistle (common sowthistle; [5]): 100
Plant response rating, Itchgrass (itchgrass; [4]): 70
Plant response rating, Itchgrass (itchgrass; [5]): 70
Plant response rating, Purslane (common purslane; [4]): 100
Plant response rating, Purslane (common purslane; [5]): 100
Plant response rating, Sandbur (southern sandbur; [4]): 40
Plant response rating, Sandbur (southern sandbur; [5]): 40
Plant response rating, Spiderwort (tropical spiderwort; [4]): 10
Plant response rating, Spiderwort (tropical spiderwort; [5]): 70

CCNC(=O)c1ccc(F)c(NC(=O)c2cn(C(C)(C)C)nc2CC)c1 [Compound 193]
Plant response rating, Chickweed (common chickweed; [1]): 100
Plant response rating, Chickweed (common chickweed; [2]): 95
Plant response rating, Chickweed (common chickweed; [3]): 80
Plant response rating, Chickweed (common chickweed; [4]): 100
Plant response rating, Chickweed (common chickweed; [5]): 100
Plant response rating, Chickweed (common chickweed; [6]): 100
Plant response rating, Chickweed (common chickweed; [8]): 40
Plant response rating, Black Mustard (mustard; [1]): 100
Plant response rating, Black Mustard (mustard; [2]): 95
Plant response rating, Black Mustard (mustard; [3]): 80
Plant response rating, Black Mustard (mustard; [4]): 100
Plant response rating, Black Mustard (mustard; [5]): 100
Plant response rating, Black Mustard (mustard; [6]): 100
Plant response rating, Black Mustard (mustard; [7]): 95
Plant response rating, Black Mustard (mustard; [8]): 60
Plant response rating, Bluegrass (annual bluegrass; [1]): 85
Plant response rating, Bluegrass (annual bluegrass; [2]): 70
Plant response rating, Bluegrass (annual bluegrass; [3]): 80
Plant response rating, Bluegrass (annual bluegrass; [4]): 100
Plant response rating, Bluegrass (annual bluegrass; [5]): 100
Plant response rating, Bluegrass (annual bluegrass; [6]): 100
Plant response rating, Bluegrass (annual bluegrass; [7]): 50
Plant response rating, Bluegrass (annual bluegrass; [8]): 20
Plant response rating, Goosegrass (goosegrass; [1]): 85
Plant response rating, Goosegrass (goosegrass; [2]): 80
Plant response rating, Goosegrass (goosegrass; [3]): 30
Plant response rating, Goosegrass (goosegrass; [4]): 80
Plant response rating, Goosegrass (goosegrass; [5]): 90
Plant response rating, Goosegrass (goosegrass; [6]): 95
Plant response rating, Goosegrass (goosegrass; [7]): 70
Plant response rating, Goosegrass (goosegrass; [8]): 20
Plant response rating, Sowthistle (common sowthistle; [1]): 95
Plant response rating, Sowthistle (common sowthistle; [2]): 95
Plant response rating, Sowthistle (common sowthistle; [3]): 80
Plant response rating, Sowthistle (common sowthistle; [4]): 95
Plant response rating, Sowthistle (common sowthistle; [5]): 95
Plant response rating, Sowthistle (common sowthistle; [6]): 95
Plant response rating, Sowthistle (common sowthistle; [7]): 60
Plant response rating, Sowthistle (common sowthistle; [8]): 10
Plant response rating, Itchgrass (itchgrass; [1]): 75
Plant response rating, Itchgrass (itchgrass; [2]): 60
Plant response rating, Itchgrass (itchgrass; [3]): 20
Plant response rating, Itchgrass (itchgrass; [4]): 70
Plant response rating, Itchgrass (itchgrass; [5]): 80
Plant response rating, Itchgrass (itchgrass; [6]): 100
Plant response rating, Itchgrass (itchgrass; [7]): 60
Plant response rating, Itchgrass (itchgrass; [8]): 30
Plant response rating, Purslane (common purslane; [1]): 85
Plant response rating, Purslane (common purslane; [2]): 60
Plant response rating, Purslane (common purslane; [4]): 60
Plant response rating, Purslane (common purslane; [5]): 100
Plant response rating, Purslane (common purslane; [6]): 100
Plant response rating, Purslane (common purslane; [7]): 60
Plant response rating, Purslane (common purslane; [8]): 20
Plant response rating, Sandbur (southern sandbur; [1]): 20
Plant response rating, Sandbur (southern sandbur; [2]): 10
Plant response rating, Sandbur (southern sandbur; [3]): 0
Plant response rating, Sandbur (southern sandbur; [4]): 10
Plant response rating, Sandbur (southern sandbur; [5]): 20
Plant response rating, Sandbur (southern sandbur; [6]): 60
Plant response rating, Sandbur (southern sandbur; [7]): 0
Plant response rating, Sandbur (southern sandbur; [8]): 0
Plant response rating, Spiderwort (tropical spiderwort; [1]): 70
Plant response rating, Spiderwort (tropical spiderwort; [2]): 50
Plant response rating, Spiderwort (tropical spiderwort; [4]): 80
Plant response rating, Spiderwort (tropical spiderwort; [5]): 90
Plant response rating, Spiderwort (tropical spiderwort; [6]): 95
Plant response rating, Spiderwort (tropical spiderwort; [7]): 20

CCc1nn(C(C)C)nc1C(=O)Nc1cccc(C(=O)N2CCCCC2)c1 [Compound 385]
Plant response rating, Chickweed (common chickweed; [3]): 20
Plant response rating, Chickweed (common chickweed; [4]): 20
Plant response rating, Chickweed (common chickweed; [5]): 60
Plant response rating, Black Mustard (mustard; [3]): 0
Plant response rating, Black Mustard (mustard; [5]): 30
Plant response rating, Bluegrass (annual bluegrass; [3]): 0
Plant response rating, Bluegrass (annual bluegrass; [4]): 10
Plant response rating, Bluegrass (annual bluegrass; [5]): 30
Plant response rating, Goosegrass (goosegrass; [3]): 20
Plant response rating, Goosegrass (goosegrass; [4]): 20
Plant response rating, Goosegrass (goosegrass; [5]): 50
Plant response rating, Sowthistle (common sowthistle; [4]): 0
Plant response rating, Sowthistle (common sowthistle; [5]): 60
Plant response rating, Itchgrass (itchgrass; [3]): 20
Plant response rating, Itchgrass (itchgrass; [4]): 20
Plant response rating, Itchgrass (itchgrass; [5]): 20
Plant response rating, Purslane (common purslane; [3]): 100
Plant response rating, Purslane (common purslane; [4]): 100
Plant response rating, Purslane (common purslane; [5]): 100
Plant response rating, Sandbur (southern sandbur; [3]): 0
Plant response rating, Sandbur (southern sandbur; [4]): 10
Plant response rating, Sandbur (southern sandbur; [5]): 40
Plant response rating, Spiderwort (tropical spiderwort; [4]): 0
Plant response rating, Spiderwort (tropical spiderwort; [5]): 0
